Experimental data as given in patent publication US8445532B2, “Use of phthalide derivatives” (priority 2005, dated 2013).
Values after ≈ are worked out from the molar mass of the structure shown. Like-named read-outs stand apart in the source and are kept apart here.

How the values were obtained:
Format in all cases: cell-based, human
MCF-7/Adr = assay: MTT drug resistance determination to conventional chemotherapeutic drugs; conditions: for IC50: MCF-7/Adr, drug alone, 68 h, MTT; for RF (drug resistant factor): IC50 MCF-7/Adr / IC50 MCF-7
Excerpt: (§1) The following cell lines were used: K562 (human chronic myeloid leukemia cell line) and K562/Adr (a cell line with drug-resistance to chemotherapeutic drugs such as Adriamycin induced by a long-term exposure to a low dosage of Adriamycin); KB (human oral epithelia cell line) and KBv200 (a cell line with drug-resistance to chemotherapeutic drugs such as Vincristine induced by a long-term exposure to a low dosage of Vincristine); MCF-7 (human mammary cancer cell line) and MCF-7/Adr (a cell line with drug-resistance to chemotherapeutic drugs such as Adriamycin induced by a long-term exposure to a low dosage of Adriamycin). All the cell lines mentioned above were purchased from Institute of Hematology, Chinese Academy of Medical Sciences.
Similarly, the multi-drug resistant cell line of MCF-7/Adr is also mainly characterized by the concurrency of multiple resistant mechanisms including the increased expression of P-gp and Bcl-2 family proteins, and the enhanced activity of glyoxalase I, etc.
(§2) Half-inhibitory concentration (IC50) was calculated by the GraphPad Prism software (San Diego, Calif.). Drug reaction was analyzed by Sigmoldal non-linear regression model.
(§3) The cells at logarithmic phase were collected and added into RPMI 1640 medium (containing 10% fetal bovine serum) to prepare a cell suspension. Then the cell suspension was plated onto a 96-well plate at 100 μl per well (1×10^4 cell/well). Adriamycin, Vincristine, Taxol, cisplatin of different concentration gradients were directly added to the semi-suspending cells (K562 and K562/Adr). The adherent cells were cultured for 24 hours after inoculation so that they could adhere completely, and then the drugs mentioned above in different concentrations were added. There were six parallel repeated wells for every concentration gradient. The medium was added up to a final volume of 200 μl per well. The cells were cultured at the condition of 37° C., saturated humidity, 5% CO2 for 68 hours. 50 μl MTT (2 mg/mL) per well was added. The 96-well plate was centrifuged and the supernatant was removed. Then 120 μl DMSO per well was added and vibrated by vibrator. The OD value was determined at a wavelength of 590 nm by enzyme labeling instrument after the crystal was dissolved completely.
(§4) The calculating method: IC50=drug concentration when the inhibitory rate was 50%.
(§5) Drug resistant factor (RF)=the IC50 of the drug resistant cells/the IC50 of the sensitive cells.

KBv200 = assay: as above; conditions: for IC50: KBv200, drug alone, 68 h, MTT; for RF (drug resistant factor): IC50 KBv200 / IC50 KB
Excerpt: as §1
The multi-drug resistant cell line, of KBv200 is also mainly characterized by the concurrency of multiple resistant mechanisms including the increased expression of P-gp and Bcl-2 family proteins, and the enhanced activity of glyoxalase I, etc. KBv200 is resistant to Vincristine more than 100 folds in comparison with KB, and cross-resistant to […], Daunomycin, Mitoxantrone, Taxol, etc.
as §2, §3, §4, §5

K562/Adr = assay: as above; conditions: for IC50: K562/Adr, drug alone, 68 h, MTT; for RF (drug resistant factor): IC50 K562/Adr / IC50 K562
Excerpt: as §1
The multi-drug resistant cell line of K562/Adr is mainly characterized by the concurrency of multiple resistant mechanisms including the increased expression of P-gp and Bcl-2 family proteins, and the enhanced activity of glyoxalase I, etc. K562/Adr is resistant to Adriamycin 20 folds more than K562, and cross-resistant to Vincristine, Daunomycin, Mitoxantrone, Taxol, etc.
as §2, §3, §4, §5

K562 = assay: as above; conditions: K562, drug alone, 68 h
Excerpt: as §1, §2, §3, §4, §5

KB = assay: as above; conditions: drug alone, 68 h
Excerpt: as §1, §2, §3, §4, §5

MCF-7 = assay: as above; conditions: 68 h
Excerpt: as §1, §2, §3, §4, §5

KBv200 cells = assay: Sensitizing effect of PA to conventional chemotherapeutic drugs (MTT); conditions: KBv200, drug alone, 68 h
Experimental: (§6) The cells at logarithmic phase were collected and added into RPMI 1640 medium (containing 10% fetal bovine serum) to make cell suspensions. The cell suspension was added to 96-well plate at 100 μl per well, and the cell number was 2×10^3 (suspending cells) or 1×10^3 (adherent cells) per well. After inoculation, the suspending cells were adapted for half an hour on the plate and the adherent cells were cultivated to allow adhesion before the drugs were added. The control groups (Ctrl) were added with anti-tumor drugs but without PA. The drug concentration of each PA group was 10 μg/mL. The concentrations of chemotherapeutic drugs increased from 0.001 μg/mL to 20 μg/mL. There Were six parallel repeated wells for every concentration gradient. RPMI 1640 was added up to a finally volume of 200 μl per well. The cells were cultured at the condition of 37° C., saturated humidity, 5% CO2 for 68 hours. The MTT was determined and the IC50 was calculated as in example 4.
(§7) The formula of resistant factor: Resistant Factor (RF)=the IC50 without sensitizer/the IC50 with sensitizer.

MCF-7/Adr cells = assay: as above; conditions: drug alone, 68 h
Experimental: as §6, §7

K562/Adr cells = assay: as above; conditions: drug alone, 68 h
Experimental: as §6, §7

[1] = Homo sapiens, read-out: IC50 of anti-tumor drug, Ctrl (without PA)

CC[C@]1(O)C[C@H]2CN(CCc3c([nH]c4ccccc34)[C@@](C(=O)OC)(c3cc4c(cc3OC)N(C=O)[C@H]3[C@@](O)(C(=O)OC)[C@H](OC(C)=O)[C@]5(CC)C=CCN6CC[C@]43[C@@H]65)C2)C1 [VCR, Vincristine]
IC50 (MCF-7/Adr; Homo sapiens, NCI/ADR-RES, read-out: IC50): 18.6 ± 1.75 µg/mL (≈ 22.5 µM)
RF (drug resistant factor) (MCF-7/Adr): 193.75
IC50 (KBv200; Homo sapiens, read-out: IC50): 21.3 ± 1.21 µg/mL (≈ 25.9 µM)
RF (drug resistant factor) (KBv200): 139.5
IC50 (K562/Adr; Homo sapiens, read-out: IC50): 12.2 ± 0.576 µg/mL (≈ 14.7 µM)
RF (drug resistant factor) (K562/Adr): 55.73
IC50 (K562; Homo sapiens, read-out: IC50): 0.218 ± 0.011 µg/mL (≈ 0.264 µM)
IC50 (KB; Homo sapiens, read-out: IC50): 0.153 ± 0.092 µg/mL (≈ 0.185 µM)
IC50 (MCF-7; Homo sapiens, MCF7, MCF-7, drug alone, read-out: IC50): 0.096 ± 0.014 µg/mL (≈ 0.116 µM)
IC50 (KBv200 cells; [1]): 10.7 ± 0.992 µg/mL
IC50 (MCF-7/Adr cells; Homo sapiens, NCI/ADR-RES, read-out: IC50 of anti-tumor drug, Ctrl (without PA)): 14.1 ± 1.95 µg/mL
IC50 (K562/Adr cells; [1]): 12.1 ± 0.349 µg/mL

N.N.[Cl][Pt][Cl] [DDP, Cisplatin]
RF (drug resistant factor) (MCF-7/Adr): 11.38
IC50 (MCF-7/Adr): 7.342 ± 0.764 µg/mL
RF (drug resistant factor) (KBv200): 14.13
IC50 (KBv200): 7.785 ± 0.6536 µg/mL
RF (drug resistant factor) (K562/Adr): 4.727
IC50 (K562/Adr): 1.075 ± 0.5646 µg/mL
IC50 (K562): 0.2274 ± 0.078 µg/mL
IC50 (KB): 0.5509 ± 0.094 µg/mL
IC50 (MCF-7; MCF-7, drug alone): 0.6453 ± 0.1675 µg/mL
IC50 of anti-tumor drug, Ctrl (without PA) (KBv200 cells; in µg/mL): 5.868 ± 0.2438
IC50 of anti-tumor drug, Ctrl (without PA) (MCF-7/Adr cells; in µg/mL): 7.708 ± 1.077
IC50 of anti-tumor drug, Ctrl (without PA) (K562/Adr cells; in µg/mL): 5.311 ± 0.4429
